Test results as given in US12377104B1, “Methods for treating a fatty liver disease” (Madrigal Pharmaceuticals, Inc., priority 2024, dated 2025).

Test system: adults with biopsy-confirmed NASH
Assay: MAESTRO-NASH: liver enzymes, imaging and biomarkers (MRI-PDFF, CAP, VCTE, MRE, liver and spleen volume, ELF)
Assay type: in vivo, human
Conditions: 80 mg
[1] = wk 48, baseline ALT ≥30 U per liter
[2] = week 52, baseline ELF score ≥9.8
[3] = week 52, baseline PIIINP ≥9 ng/mL
[4] = week 52, baseline TIMP-I ≥240 ng/ml
[5] = week 52, baseline hyaluronic acid ≥50 ng/ml

CC(C)c1cc(Oc2c(Cl)cc(-n3nc(C#N)c(=O)[nH]c3=O)cc2Cl)n[nH]c1=O [Resmetirom, 2-(3,5-dichloro-4-((5-isopropyl-6-oxo-1,6-dihydropyridazin-3-yl)oxy)phenyl)-3,5-dioxo-2,3,4,5-tetrahydro-1,2,4-triazine-6-carbonitrile]
Alanine aminotransferase level, difference from placebo (wk 48): −19.7 percentage points | Aspartate aminotransferase level, difference from placebo (wk 48): −19.3 percentage points | γ-Glutamyltransferase level, difference from placebo (wk 48): −28.3 percentage points | Alanine aminotransferase level, least-squares mean percent change from baseline [1]: −26.6 ± 3.7% | Aspartate aminotransferase level, least-squares mean percent change from baseline [1]: −22.1 ± 3.9% | γ-Glutamyltransferase level, least-squares mean percent change from baseline [1]: −25.0 ± 5.5% | MRI-PDFF, difference from placebo (wk 52): −26.7 percentage points | MRI-PDFF, least-squares mean percent change from baseline (wk 52): −35.4 ± 2.8% | MRE ≥19% increase from BL, no. of patients (F1B, responder analysis): 0 | MRE ≥19% reduction from BL, % of patients (F1B, responder analysis): (20.0) % | MRE ≥19% reduction from BL, no. of patients (F1B, responder analysis): 1 | VCTE/LSM improving >25%, % of patients (F1B, responder analysis): (50.0) % | VCTE/LSM improving >25%, no. of patients (F1B, responder analysis): 6 | VCTE/LSM improving ≥30%, % of patients (F1B, responder analysis): (41.7) % | VCTE/LSM improving ≥30%, no. of patients (F1B, responder analysis): 5 | VCTE/LSM worsening ≥25%, % of patients (F1B, responder analysis): (8.3) % | VCTE/LSM worsening ≥25%, no. of patients (F1B, responder analysis): 1 | VCTE/LSM worsening ≥30%, % of patients (F1B, responder analysis): (8.3) % | VCTE/LSM worsening ≥30%, no. of patients (F1B, responder analysis): 1 | FibroScan VCTE/LSM, LS mean CFB (F1B, week 52): −3.7 kPa | FibroScan VCTE/LSM, LS mean CFB difference from PBO (F1B, week 52): −3.1 kPa | MRE, LS mean % CFB (F1B, week 52): −5.7% | MRE, LS mean % CFB difference from PBO (F1B, week 52): −13.2% | MRE ≥19% increase from BL, no. of patients (F2, responder analysis): 0 | MRE ≥19% reduction from BL, % of patients (F2, responder analysis): (35.0) % | MRE ≥19% reduction from BL, no. of patients (F2, responder analysis): 7 | VCTE/LSM improving ≥25%, % of patients (F2, responder analysis): (44.0) % | VCTE/LSM improving ≥25%, no. of patients (F2, responder analysis): 37 | VCTE/LSM improving ≥30%, % of patients (F2, responder analysis): (33.3) % | VCTE/LSM improving ≥30%, no. of patients (F2, responder analysis): 28 | VCTE/LSM worsening ≥25%, % of patients (F2, responder analysis): (11.9) % | VCTE/LSM worsening ≥25%, no. of patients (F2, responder analysis): 10 | VCTE/LSM worsening ≥30%, % of patients (F2, responder analysis): (8.3) % | VCTE/LSM worsening ≥30%, no. of patients (F2, responder analysis): 7 | FibroScan VCTE/LSM, LS mean CFB (F2, week 52): −2.3 kPa | FibroScan VCTE/LSM, LS mean CFB difference from PBO (F2, week 52): 1.1 kPa | MRE, LS mean % CFB (F2, week 52): −1.9% | MRE, LS mean % CFB difference from PBO (F2, week 52): 4.0% | MRE ≥19% increase from BL, % of patients (F3, responder analysis): (3.6) % | MRE ≥19% increase from BL, no. of patients (F3, responder analysis): 3 | MRE ≥19% reduction from BL, % of patients (F3, responder analysis): (26.2) % | MRE ≥19% reduction from BL, no. of patients (F3, responder analysis): 22 | VCTE/LSM improving ≥25%, % of patients (F3, responder analysis): (41.1) % | VCTE/LSM improving ≥25%, no. of patients (F3, responder analysis): 67 | VCTE/LSM improving ≥30%, % of patients (F3, responder analysis): (34.4) % | VCTE/LSM improving ≥30%, no. of patients (F3, responder analysis): 56 | VCTE/LSM worsening ≥25%, % of patients (F3, responder analysis): (14.7) % | VCTE/LSM worsening ≥25%, no. of patients (F3, responder analysis): 24 | VCTE/LSM worsening ≥30%, % of patients (F3, responder analysis): (12.9) % | VCTE/LSM worsening ≥30%, no. of patients (F3, responder analysis): 21 | FibroScan VCTE/LSM, LS mean CFB (F3, week 52): 2.0 kPa | FibroScan VCTE/LSM, LS mean CFB difference from PBO (F3, week 52): −0.86 kPa | MRE, LS mean % CFB (F3, week 52): −8.9% | MRE, LS mean % CFB difference from PBO (F3, week 52): −8.6% | Liver volume, LS mean % CFB (week 16): −18.8% | Liver volume, LS mean % CFB difference from PBO (week 16): 18.5% | MRI-PDFF % fat fraction, LS mean % CFB (week 16): −37.8% | MRI-PDFF % fat fraction, LS mean % CFB difference from PBO (week 16): −31.4% | Spleen volume, LS mean % CFB (week 16): −2.4% | Spleen volume, LS mean % CFB difference from PBO (week 16): −3.9% | ALT, LS mean % CFB (week 48): −26.6% | ALT, LS mean % CFB difference from PBO (week 48): −19.7% | ALT, LS mean CFB (week 48): −20.4 U/L | AST, LS mean % CFB (week 48): −22.1% | AST, LS mean % CFB difference from PBO (week 48): −19.3% | AST, LS mean CFB (week 48): −13.9 U/L | GGT, LS mean % CFB (week 48): −25.0% | GGT, LS mean % CFB difference from PBO (week 48): −28.3% | GGT, LS mean CFB (week 48): −31.3 U/L | Adiponectin, LS mean CFB (week 52): 0.86 µg/mL | Adiponectin, LS mean CFB difference from PBO (week 52): 0.97 µg/mL | CK-18, LS mean CFB (week 52): −278.2 U/L | CK-18, LS mean CFB difference from PBO (week 52): −134.3 U/L | FibroScan CAP, LS mean CFB (week 52): −39.6 dB/m | FibroScan CAP, LS mean CFB difference from PBO (week 52): −25.2 dB/m | Liver volume, LS mean % CFB (week 52): −21.6% | Liver volume, LS mean % CFB difference from PBO (week 52): −20.5% | MRI-PDFF % fat fraction, LS mean % CFB (week 52): −35.4% | MRI-PDFF % fat fraction, LS mean % CFB difference from PBO (week 52): −26.7% | Spleen volume, LS mean % CFB (week 52): −5.9% | Spleen volume, LS mean % CFB difference from PBO (week 52): −9.0% | Enhanced liver fibrosis score, LS mean CFB [2]: -0.34 | Enhanced liver fibrosis score, LS mean CFB difference from PBO [2]: −0.22 | PIIINP, LS mean % CFB [3]: −10.7% | PIIINP, LS mean % CFB difference from PBO [3]: −9.7% | PIIINP, LS mean CFB [3]: 2.0 ng/mL | PIIINP, LS mean CFB difference from PBO [3]: -1.4 ng/mL | TIMP-I, LS mean % CFB [4]: −9.3% | TIMP-I, LS mean % CFB difference from PBO [4]: −5.7% | TIMP-I, LS mean CFB [4]: -31.0 ng/mL | TIMP-I, LS mean CFB difference from PBO [4]: -17.7 ng/mL | Hyaluronic acid, LS mean % CFB [5]: 17.2% | Hyaluronic acid, LS mean % CFB difference from PBO [5]: −7.6% | Hyaluronic acid, LS mean CFB [5]: 1.1 µg/L
